According to patent US20220257629A1, “COMPOSITIONS AND METHODS FOR UPREGULATION OF HUMAN FETAL HEMOGLOBIN” (THE UAB RESEARCH FOUNDATION, priority 2019, published 2022):

Columns and labels:
[1] = system: human CD34+-differentiated erythroid cells; assay: FACS analysis of fetal hemoglobin expressing erythroid cells (F cells); assay type: cell-based; settings: 0.3, 0.5 or 0.7 μM, 14 days, compared to DMSO control (FIG. 1)
Description: For fetal hemoglobin analysis, one million erythroid cells, differentiated for 14 days with or without idoxuridine in the medium, were washed with PBS that included 0.1% BSA, and fixed in 0.05% Glutaraldehyde (Sigma, G5882, St. Louis, Mo.). The fixed cells were washed three times with PBS that included 0.1% BSA, followed by permeabilization in 1% Triton X-100 (Life Technologies, HFH-10, Carlsbad, Calif.), before immunostaining with an antibody directed against HbF (Invitrogen, MHFH04, Carlsbad, Calif.).

[2] = system: human CD34+-differentiated erythroid cells; assay: Western blot analysis of KLF1, BCL11A and LRF; assay type: cell-based; settings: 0.7 uM, 7 days, compared to DMSO (FIG. 5)
Protocol: To analyze the expression of KLF1, BCL11A and LRF by Western blot, whole cell extracts were prepared from erythroid cells differentiated for seven days with DMSO or 0.7 uM of idoxuridine. Antibodies used included Actb (Santa Cruz, sc-47778 HRP, Dallas, Tex.), KLF1 (Santa Cruz, sc-14034), BCL11A (Abcam, ab19489, Cambridge, UK) and LRF (Abcam, ab175918).

[3] = system: human CD34+-differentiated erythroid cells; assay: RNAseq gene expression; assay type: cell-based
[4] = system: human CD34+-differentiated erythroid cells; assay: Library screen, RT-PCR of γ- and β-globin expression; assay type: cell-based
Protocol: (§1) Briefly, for the screen, 5×10^5 CD34^+ cells were expanded for six days in StemSpan SFEM medium (StemCell Technologies Inc., Vancouver, Canada) with SCF, IL-3, TPO and Flt-3 ligand. After expansion, 100,000 cells were distributed to each well (in a 24-well plate) and grown in SFEM medium with 2% P/S, 20 ng/ml SCF, 1 U/ml Epo, 5 ng/ml IL-3, 2 μM dexamethasone, and 1 μM β-estradiol. Individual small molecules were added to each well. Cells were differentiated for another nine days (for RNA analysis) or fourteen days (for hemoglobin analysis). The γ- and β-globin expression in each sample were analyzed by RT-PCR or HPLC.

[5] = system: human CD34+-differentiated erythroid cells; assay: HPLC hemoglobin analysis; assay type: cell-based; settings: 0.3 or 0.65 μM, compared to DMSO treated cells (FIG. 2)
Protocol: as §1

[6] = system: human β-globin BAC transgenic mice; assay: In vivo globin gene expression by qRT-PCR; design: species or system mouse; settings: 100 mg/kg daily intraperitoneal injections for four weeks, blood, qRT-PCR (FIG. 6)
Protocol: To test if idoxuridine can induce mouse Ey2 and human γ-globin expression in human β-BAC transgenic mice, 100 mg/kg body weight of Idoxuridine were injected intraperitoneally (IP) into mice for 4 weeks. Blood samples were obtained at the end of Idoxuridine treatment and cDNAs were synthesized. Mouse Ey2 and human γ-globin expression were analyzed by qRT-PCR.

[7] = system: human CD34+-differentiated erythroid cells; assay: Isoelectric focusing gel of the samples analyzed by HPLC; assay type: cell-based; settings: idoxuridine 0.3 and 0.65 μM (FIG. 4)
[8] = human CD34+-differentiated erythroid cells

O=c1[nH]c(=O)n([C@H]2C[C@H](O)[C@@H](CO)O2)cc1I [Idoxuridine, idoxuridine]
number of erythroid cells expressing fetal hemoglobin (F cells) [1]: increases
BCL11A expression (Western blot) [2]: decreases
KLF1 expression (Western blot) [2]: decreases
ε-globin gene expression ([3]; Table 1): reactivated
RNAseq expression, BCL11A ([3]; gene BCL11A, idoxuridine treated cells): 478.2
Fold change, BCL11A ([3]; gene BCL11A, idoxuridine vs DMSO control): 0.303
RNAseq expression, HBB ([3]; gene HBB, idoxuridine treated cells): 20938
Fold change, HBB ([3]; gene HBB, idoxuridine vs DMSO control): 0.2
RNAseq expression, HBD ([3]; gene HBD, idoxuridine treated cells): 1798
Fold change, HBD ([3]; gene HBD, idoxuridine vs DMSO control): 0.16
RNAseq expression, HBE1 ([3]; gene HBE1, idoxuridine treated cells): 17051
Fold change, HBE1 ([3]; gene HBE1, idoxuridine vs DMSO control): 560
RNAseq expression, HBG1 ([3]; gene HBG1, idoxuridine treated cells): 18815
Fold change, HBG1 ([3]; gene HBG1, idoxuridine vs DMSO control): 8.19
RNAseq expression, HBG2 ([3]; gene HBG2, idoxuridine treated cells): 980
Fold change, HBG2 ([3]; gene HBG2, idoxuridine vs DMSO control): 6
RNAseq expression, SOX6 ([3]; gene SOX6, idoxuridine treated cells): 13
Fold change, SOX6 ([3]; gene SOX6, idoxuridine vs DMSO control): 0.25
BCL11A mRNA expression [3, 8]: decreased
KLF1 mRNA expression [3, 8]: decreased
HbF expression in a drug screen [4]: potent inducers
HbF expression (reverse transcriptase-PCR) [4, 8]: upregulates
γ-globin expression ([4]; human CD34+-differentiated erythroid cells contacted with idoxuridine): significantly increased
fetal hemoglobin (HPLC) [5]: significantly increases
human γ-globin gene expression [6]: increased
mouse Ey-2 gene expression [6]: increased
HbF expression (isoelectric focusing gel) [7]: upregulated

O=c1[nH]c(=O)n([C@H]2C[C@H](O)[C@@H](CO)O2)cc1C(F)(F)F [Trifluridine, trifluridine]
HbF expression in a drug screen [4]: potent inducers
γ-globin gene expression in the original screen ([4]; original screen): reactivated
